Experimental data taken from ChEMBL document CHEMBL1144052, “Cytotoxic 3,4-secoapotirucallanes from Aaglaia argentea bark” (J Nat Prod, 1999).
Values after ≈ are worked out from the molar mass of the structure shown. Active and inactive are the calls of the source. The calls are words filed in the database; no cut-off is given here.

System: KB
Assay: Cytotoxicity against human KB cells
Type: functional, cell-based

For `C/C=C(\C)[C@@H](O)C(=O)O[C@@H]1C[C@H](C(C)(C)O)[C@](C)(CCC(=O)OC)[C@H]2[C@H](OC(=O)[C@H](O)C(C)C)C[C@]3(C)C(=CC[C@H]3[C@H]3CO[C@H](C=C(C)C)C3)[C@@]21C` [ARGENTINIC ACID E METHYL ESTER], the IC50 was 3.5 µg/mL (≈ 4.79 µM).
With `C/C=C(\C)[C@@H](O)C(=O)O[C@@H]1C[C@H](C(C)(C)O)[C@](C)(CCC(=O)O)[C@H]2[C@H](OC(=O)[C@H](O)[C@H](C)CC)C[C@]3(C)C(=CC[C@H]3[C@H]3CO[C@H](C=C(C)C)C3)[C@@]21C` the Activity was “inactive”.
`CC[C@@H](C)[C@@H](O)C(=O)O[C@@H]1C[C@]2(C)C(=CC[C@H]2[C@H]2CO[C@H](C=C(C)C)C2)[C@@]2(C)[C@H]1[C@@](C)(CCC(=O)OC)[C@@H](C(C)(C)O)C[C@H]2OC(=O)[C@H](O)[C@H](C)CC` [ARGENTINIC ACID G METHYL ESTER] was tested, and the IC50 was 2.5 µg/mL (≈ 3.35 µM).
For `CC[C@@H](C)[C@@H](O)C(=O)O[C@@H]1C[C@H](C(C)(C)O)[C@](C)(CCC(=O)O)[C@H]2CC[C@]3(C)C(=CC[C@H]3[C@H]3CO[C@H](C=C(C)C)C3)[C@@]21C`, the Activity was “inactive”.
For `CC[C@@H](C)[C@@H](O)C(=O)O[C@@H]1C[C@]2(C)C(=CC[C@H]2[C@H]2CO[C@H](C=C(C)C)C2)[C@@]2(C)[C@H]1[C@@](C)(CCC(=O)O)[C@@H](C(C)(C)O)C[C@H]2OC(=O)[C@H](O)[C@H](C)CC`, the Activity was “inactive”.
With `CC(C)=C[C@@H]1C[C@@H]([C@@H]2CC=C3[C@@]4(C)[C@H](CC[C@]32C)[C@@](C)(CCC(=O)O)[C@@H](C(C)(C)O)C[C@H]4OC(=O)[C@H](O)C(C)C)CO1` the Activity was “inactive”.
For `CC[C@@H](C)[C@@H](O)C(=O)O[C@@H]1C[C@H](C(C)(C)O)[C@](C)(CCC(=O)OC)[C@H]2CC[C@]3(C)C(=CC[C@H]3[C@H]3CO[C@H](C=C(C)C)C3)[C@@]21C` [ARGENTINIC ACID A METHYL ESTER], the IC50 was 2 µg/mL (≈ 3.24 µM).
`C/C=C(/C)[C@@H](O)C(=O)O[C@@H]1C[C@H](C(C)(C)O)[C@](C)(CCC(=O)OC)[C@H]2[C@H](OC(=O)[C@H](O)/C(C)=C/C)C[C@]3(C)C(=CC[C@H]3[C@H]3CO[C@H](C=C(C)C)C3)[C@@]21C` [ARGENTINIC ACID H METHYL ESTER] showed an IC50 of 2 µg/mL (≈ 2.69 µM).
In the case of `C/C=C(\C)[C@@H](O)C(=O)O[C@@H]1C[C@H](C(C)(C)O)[C@](C)(CCC(=O)O)[C@H]2[C@H](OC(=O)[C@H](O)C(C)C)C[C@]3(C)C(=CC[C@H]3[C@H]3CO[C@H](C=C(C)C)C3)[C@@]21C`, the Activity is reported as “inactive”.
`C/C=C(\C)[C@@H](O)C(=O)O[C@@H]1C[C@H](C(C)(C)O)[C@](C)(CCC(=O)OC)[C@H]2CC[C@]3(C)C(=CC[C@H]3[C@H]3CO[C@H](C=C(C)C)C3)[C@@]21C` [ARGENTINIC ACID C METHYL ESTER] showed an IC50 of 2 µg/mL (≈ 3.25 µM).
`C/C=C(\C)[C@@H](O)C(=O)O[C@@H]1C[C@H](C(C)(C)O)[C@](C)(CCC(=O)OC)[C@H]2[C@H](OC(=O)[C@H](O)[C@H](C)CC)C[C@]3(C)C(=CC[C@H]3[C@H]3CO[C@H](C=C(C)C)C3)[C@@]21C` [ARGENTINIC ACID D METHYL ESTER] was tested, and the IC50 was 1 µg/mL (≈ 1.34 µM).
`C/C=C(\C)[C@@H](O)C(=O)O[C@@H]1C[C@H](C(C)(C)O)[C@](C)(CCC(=O)O)[C@H]2CC[C@]3(C)C(=CC[C@H]3[C@H]3CO[C@H](C=C(C)C)C3)[C@@]21C` was tested, and the Activity was “inactive”.
Work on `COC(=O)CC[C@@]1(C)[C@@H](C(C)(C)O)C[C@@H](OC(=O)[C@H](O)C(C)C)[C@@]2(C)C3=CC[C@@H]([C@H]4CO[C@H](C=C(C)C)C4)[C@]3(C)CC[C@H]12` [ARGENTINIC ACID B METHYL ESTER] yielded an IC50 of 2 µg/mL (≈ 3.32 µM).
`CC[C@@H](C)[C@@H](O)C(=O)O[C@@H]1C[C@]2(C)C(=CC[C@H]2[C@H]2CO[C@H](C=C(C)C)C2)[C@@]2(C)[C@H]1[C@@](C)(CCC(=O)OC)[C@@H](C(C)(C)O)C[C@H]2OC(=O)[C@H](O)C(C)C` [ARGENTINIC ACID F METHYL ESTER] showed an IC50 of 2 µg/mL (≈ 2.73 µM).
With `CC[C@@H](C)[C@@H](O)C(=O)O[C@@H]1C[C@]2(C)C(=CC[C@H]2[C@H]2CO[C@H](C=C(C)C)C2)[C@@]2(C)[C@H]1[C@@](C)(CCC(=O)O)[C@@H](C(C)(C)O)C[C@H]2OC(=O)[C@H](O)C(C)C` the Activity was “inactive”.
With `C/C=C(/C)[C@@H](O)C(=O)O[C@@H]1C[C@H](C(C)(C)O)[C@](C)(CCC(=O)O)[C@H]2[C@H](OC(=O)[C@H](O)/C(C)=C/C)C[C@]3(C)C(=CC[C@H]3[C@H]3CO[C@H](C=C(C)C)C3)[C@@]21C` the Activity was “inactive”.
